Measured values: patent publication US20180148418A1, “AMIDO-SUBSTITUTED CYCLOHEXANE DERIVATIVES” (Bayer Pharma Aktiengesellschaft, priority 2015, published 2018)

Key:
[1] = molecular target: T1, TNKS2 (Homo sapiens, UniProt Q9H2K2); experiment: TNKS2 Assay B (auto-parsylation, [3H]-NAD+ SPA); format: biochemical; details: 6 nM TNKS2, auto-parsylation, over night at room temperature
T1 construct: purchased BPS Bioscience, San Diego, USA 80572 (TNKS2 Histone Ribosylation Assay Kit)
T1 sequence (Q9H2K2 1-1166): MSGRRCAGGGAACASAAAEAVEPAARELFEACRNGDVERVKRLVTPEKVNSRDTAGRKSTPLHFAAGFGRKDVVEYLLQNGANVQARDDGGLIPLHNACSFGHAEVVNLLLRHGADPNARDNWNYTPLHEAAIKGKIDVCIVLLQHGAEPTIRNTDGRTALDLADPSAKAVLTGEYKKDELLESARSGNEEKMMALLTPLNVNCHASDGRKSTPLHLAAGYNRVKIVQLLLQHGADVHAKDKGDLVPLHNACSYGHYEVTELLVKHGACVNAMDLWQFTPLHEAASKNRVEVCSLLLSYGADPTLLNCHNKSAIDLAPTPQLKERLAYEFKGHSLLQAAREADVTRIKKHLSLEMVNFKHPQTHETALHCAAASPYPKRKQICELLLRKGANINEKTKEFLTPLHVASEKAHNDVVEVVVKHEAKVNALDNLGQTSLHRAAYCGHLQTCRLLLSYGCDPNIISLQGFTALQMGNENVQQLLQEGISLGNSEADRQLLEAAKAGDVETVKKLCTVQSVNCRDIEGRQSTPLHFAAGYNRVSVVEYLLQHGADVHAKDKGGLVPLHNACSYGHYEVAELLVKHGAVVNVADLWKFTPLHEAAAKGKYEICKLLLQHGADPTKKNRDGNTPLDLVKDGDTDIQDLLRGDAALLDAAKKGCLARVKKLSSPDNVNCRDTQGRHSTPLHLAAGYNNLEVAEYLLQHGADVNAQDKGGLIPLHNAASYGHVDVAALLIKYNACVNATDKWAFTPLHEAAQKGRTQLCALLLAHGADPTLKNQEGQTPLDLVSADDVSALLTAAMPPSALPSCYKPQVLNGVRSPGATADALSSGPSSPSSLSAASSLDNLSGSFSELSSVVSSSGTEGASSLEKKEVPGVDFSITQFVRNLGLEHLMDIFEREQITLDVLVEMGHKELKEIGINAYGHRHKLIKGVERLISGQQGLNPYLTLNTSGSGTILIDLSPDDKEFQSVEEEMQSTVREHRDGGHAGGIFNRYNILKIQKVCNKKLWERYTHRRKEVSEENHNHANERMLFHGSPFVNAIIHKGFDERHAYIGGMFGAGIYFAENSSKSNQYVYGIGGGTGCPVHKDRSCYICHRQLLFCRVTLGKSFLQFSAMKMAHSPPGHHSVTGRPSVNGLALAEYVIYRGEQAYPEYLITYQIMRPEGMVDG

[2] = system: HEK293 cells cotransfected with the FOP control vector; experiment: HEK293 FOP assay (control reporter with non-functional TCF elements); format: cell-based; details: Homo sapiens, 16 hours
Summary of the method: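 Stable HEK293 line carrying FOP control reporter (randomized non-functional TCF sites, with pcDNA3), Geneticin-selected, plated 24 h before assay. Stimulated with recombinant human Wnt-3a (2500-5 ng/ml) and compounds 50 μM–15 nM (3.16-fold steps) in CAFTY buffer pH 7.4 with 2 mM Ca2+, 0.01% BSA, run parallel to TOP line.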

[3] = system: wildtype Wnt signaling cascade; experiment: HEK293 TOP assay (Super TopFlash luciferase reporter, Wnt-3a stimulated); format: cell-based; details: Homo sapiens, HEK293, 16 h, HEK293 TOP reporter cells, Wnt3a at EC50, 16 hours
Summary of the method: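 HEK293 cells stably carrying Super TopFlash (TOP) run in parallel with FOP cells, 10000/well plated 24 h ahead, stimulated with recombinant human Wnt-3a. Compounds tested 50 μM to 15 nM in 3.16-fold steps in CAFTY buffer pH 7.4 with 2 mM Ca^2+ and 0.01% BSA; luciferase read-out.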

Compound | IC50 [1] [nM] | IC50 [3] [nM] | IC50 [2] [nM]
O=C(N[C@H]1CC[C@@]2(CCCN(c3cc(F)c(F)cc3Cl)C2=O)CC1)c1[nH]cnc1C(=O)N1CCOCC1 [Example 323, N-[(trans)-2-(2-chloro-4,5-difluorophenyl)-1-oxo-2-azaspiro[5.5]undec-9-yl]-4-(morpholin-4-ylcarbonyl)-1H-imidazole-5-carboxamide] | 930 | 97 | ≥ 50000
O=C(N[C@H]1CC[C@@]2(CCCN(c3ccc(F)cc3Cl)C2=O)CC1)c1cnn2cccnc12 [Example 325, N-[(trans)-2-(2-chloro-4-fluorophenyl)-1-oxo-2-azaspiro[5.5]undec-9-yl]pyrazolo[1,5-a]pyrimidine-3-carboxamide] | 100 | 23 | ≥ 50000
O=C(N[C@H]1CC[C@@]2(CCCN(c3ccc(F)cc3Cl)C2=O)CC1)c1cnc2cccnn12 [Example 326, N-[(trans)-2-(2-chloro-4-fluorophenyl)-1-oxo-2-azaspiro[5.5]undec-9-yl]imidazo[1,2-b]pyridazine-3-carboxamide] | 180 | 60 | ≥ 50000
O=C(NC1CC1)c1nc[nH]c1C(=O)N[C@H]1CC[C@@]2(CCCN(c3ccc(F)cc3Cl)C2=O)CC1 [Example 328, N^5-[(trans)-2-(2-chloro-4-fluorophenyl)-1-oxo-2-azaspiro[5.5]undec-9-yl]-N^4-cyclopropyl-1H-imidazole-4,5-dicarboxamide] | 75 | 50 | 27000
CC(C)NC(=O)c1nc[nH]c1C(=O)N[C@H]1CC[C@@]2(CCCN(c3ccc(F)cc3Cl)C2=O)CC1 [Example 329, N^5-[(trans)-2-(2-chloro-4-fluorophenyl)-1-oxo-2-azaspiro[5.5]undec-9-yl]-N^4-(propan-2-yl)-1H-imidazole-4,5-dicarboxamide] | 160 | 260 | 40000
O=C(N[C@H]1CC[C@@]2(CCN(c3ccc(F)cc3Cl)C2=O)CC1)c1cnn2c(C(F)F)cc(C(F)F)nc12 [Example 331, N-[(trans)-2-(2-chloro-4-fluorophenyl)-1-oxo-2-azaspiro[4.5]dec-8-yl]-5,7-bis(difluoromethyl)pyrazolo[1,5-a]pyrimidine-3-carboxamide] | 76 | 6.5 | 30000
O=C(N[C@H]1CC[C@]2(CCN(c3ccc(F)cc3Cl)C2=O)CC1)c1c[nH]c2cccnc12 [Example 332, N-[(cis)-2-(2-chloro-4-fluorophenyl)-1-oxo-2-azaspiro[4.5]dec-8-yl]-1H-pyrrolo[3,2-b]pyridine-3-carboxamide] | 4700 | 570 | 35000
Cc1cc(C(F)F)n2ncc(C(=O)N[C@H]3CC[C@]4(CCN(c5ccc(F)cc5Cl)C4=O)CC3)c2n1 [Example 333, N-[(cis)-2-(2-chloro-4-fluorophenyl)-1-oxo-2-azaspiro[4.5]dec-8-yl]-7-(difluoromethyl)-5-methylpyrazolo[1,5-a]pyrimidine-3-carboxamide] | 670 | 55 | 30000
Cc1ccn2ncc(C(=O)N[C@H]3CC[C@]4(CCN(c5ccc(F)cc5Cl)C4=O)CC3)c2n1 [Example 335, N-[(cis)-2-(2-chloro-4-fluorophenyl)-1-oxo-2-azaspiro[4.5]dec-8-yl]-5-methylpyrazolo[1,5-a]pyrimidine-3-carboxamide] | > 10000 | 650 | ≥ 50000
Cc1ccnc2c(C(=O)N[C@H]3CC[C@]4(CCN(c5ccc(F)cc5Cl)C4=O)CC3)cnn12 [Example 336, N-[(cis)-2-(2-chloro-4-fluorophenyl)-1-oxo-2-azaspiro[4.5]dec-8-yl]-7-methylpyrazolo[1,5-a]pyrimidine-3-carboxamide] | 870 | 54 | ≥ 50000
COCc1cc(C)n2ncc(C(=O)N[C@H]3CC[C@]4(CCN(c5ccc(F)cc5Cl)C4=O)CC3)c2n1 [Example 337, N-[(cis)-2-(2-chloro-4-fluorophenyl)-1-oxo-2-azaspiro[4.5]dec-8-yl]-5-(methoxymethyl)-7-methylpyrazolo[1,5-a]pyrimidine-3-carboxamide] | > 10000 | 1100 | ≥ 50000
O=C(NC1CC1)c1nc[nH]c1C(=O)N[C@H]1CC[C@]2(CCN(c3ccc(F)cc3Cl)C2=O)CC1 [Example 338, N^5-[(cis)-2-(2-chloro-4-fluorophenyl)-1-oxo-2-azaspiro[4.5]dec-8-yl]-N^4-cyclopropyl-1H-imidazole-4,5-dicarboxamide] | > 10000 | 1900 | 18000
CCNC(=O)c1nc[nH]c1C(=O)N[C@H]1CC[C@]2(CCN(c3ccc(F)cc3Cl)C2=O)CC1 [Example 339, N^5-[(cis)-2-(2-chloro-4-fluorophenyl)-1-oxo-2-azaspiro[4.5]dec-8-yl]-N^4-ethyl-1H-imidazole-4,5-dicarboxamide] | > 10000 | 3100 | ≥ 50000

Now those with a lower IC50 [1], led by results:

IC50 [1] [nM] | IC50 [3] [nM] | Compound | IC50 [2] [nM]
9.4 | 27 | NC(=O)c1nc[nH]c1C(=O)N[C@H]1CC[C@@]2(CCCN(c3cc(F)c(F)cc3Cl)C2=O)CC1 [Example 320, N^5-[(trans)-2-(2-chloro-4,5-difluorophenyl)-1-oxo-2-azaspiro[5.5]undec-9-yl]-1H-imidazole-4,5-dicarboxamide] | ≥ 50000
52 | 6 | CC(C)NC(=O)c1nc[nH]c1C(=O)N[C@H]1CC[C@@]2(CCCN(c3cc(F)c(F)cc3Cl)C2=O)CC1 [Example 321, N^5-[(trans)-2-(2-chloro-4,5-difluorophenyl)-1-oxo-2-azaspiro[5.5]undec-9-yl]-N^4-(propan-2-yl)-1H-imidazole-4,5-dicarboxamide] | 24000
12 | 1.4 | O=C(N[C@H]1CC[C@@]2(CCCN(c3cc(F)c(F)cc3Cl)C2=O)CC1)c1[nH]cnc1C(=O)N1CC(OC(F)F)C1 [Example 322, N-[(trans)-2-(2-chloro-4,5-difluorophenyl)-1-oxo-2-azaspiro[5.5]undec-9-yl]-4-{[3-(difluoromethoxy)azetidin-1-yl]carbonyl}-1H-imidazole-5-carboxamide] | 21000
19 | 3 | O=C(NC1CC1)c1nc[nH]c1C(=O)N[C@H]1CC[C@@]2(CCCN(c3cc(F)c(F)cc3Cl)C2=O)CC1 [Example 324, N^5-[(trans)-2-(2-chloro-4,5-difluorophenyl)-1-oxo-2-azaspiro[5.5]undec-9-yl]-N^4-cyclopropyl-1H-imidazole-4,5-dicarboxamide] | ≥ 500
29 | 7 | O=C(N[C@H]1CC[C@@]2(CCCN(c3ccc(F)cc3Cl)C2=O)CC1)c1[nH]cnc1C(=O)N1CC(F)C1 [Example 327, N-[(trans)-2-(2-chloro-4-fluorophenyl)-1-oxo-2-azaspiro[5.5]undec-9-yl]-4-[(3-fluoroazetidin-1-yl)carbonyl]-1H-imidazole-5-carboxamide] | 31000
11 | 5 | O=C(N[C@H]1CC[C@@]2(CCN(c3ccc(F)cc3Cl)C2=O)CC1)c1cnn2ccc(C(F)F)nc12 [Example 330, N-[(trans)-2-(2-chloro-4-fluorophenyl)-1-oxo-2-azaspiro[4.5]dec-8-yl]-5-(difluoromethyl)pyrazolo[1,5-a]pyrimidine-3-carboxamide] | 30000
